Assay results as given in ChEMBL document CHEMBL1201862, “PubChem BioAssay data set” (2004).
Activity calls are given as the source filed them.

Experiments:
cells [1] = assay type: functional, cell-based
cells [2] = assay type: functional, cell-based; remark: listed apart in the source
[3] = molecular target: T1, Trace amine-associated receptor 1 (Homo sapiens, UniProt Q96RJ0); assay: Fluorescence-based cell-based high throughput dose response assay to identify agonists of the human trace amine associated receptor 1 (TAAR1).; assay type: functional
T1 sequence (Q96RJ0 whole entry): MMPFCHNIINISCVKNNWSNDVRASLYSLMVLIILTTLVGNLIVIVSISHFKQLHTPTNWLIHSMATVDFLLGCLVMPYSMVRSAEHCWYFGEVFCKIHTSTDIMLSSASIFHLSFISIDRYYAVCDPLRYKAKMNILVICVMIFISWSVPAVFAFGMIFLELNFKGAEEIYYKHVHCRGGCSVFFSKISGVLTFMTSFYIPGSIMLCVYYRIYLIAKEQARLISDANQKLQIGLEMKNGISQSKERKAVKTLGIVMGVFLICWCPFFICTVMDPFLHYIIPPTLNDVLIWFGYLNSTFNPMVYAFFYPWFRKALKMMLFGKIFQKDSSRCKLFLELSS

cells [4] = assay type: functional, cell-based; remark: listed apart in the source
[5] = molecular target: T1, Trace amine-associated receptor 1; assay: Counterscreen for agonists of the human trace amine associated receptor 1 (hTAAR1): Fluorescence-based cell-based high throughput dose response assay to identify hTAAR1 agonist that also desensitize TAAR1 receptor response.; assay type: functional
cells [6] = assay type: functional, cell-based; remark: listed apart in the source
[7] = test system: Streptococcus sp. 'group A'; assay: growth inhibition of control SK(-) GAS strain, dose response, counter-screen for streptokinase expression inhibitor project, luminescence, kanamycin, BacTiterGlo, confirmation (AID 1900); assay type: functional, organism-based
Streptococcus = assay: Group A Streptococcus viability loss, dose response, counter-screen for streptokinase expression inhibitor project, luminescence, BacTiterGlo (AID 1915); assay type: functional, organism-based;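 further: potency for reduction of bacterial viability or growth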
H9c2 = assay: cells; assay type: functional, cell-based; details: Rattus norvegicus, H9c2, Myocardium
Streptokinase A = molecular target: T2, Streptokinase A (Streptococcus pyogenes serotype M1, UniProt P10520); assay: S. pyogenes streptokinase expression inhibitors, potency, dose response, plasminogen activation absorbance, OD405 (AID 1914); assay type: functional, Streptococcus pyogenes M1 GAS;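 further: secreted streptokinase activity via plasminogen activation per viability signal from cell pellet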
T2 sequence (P10520 whole entry): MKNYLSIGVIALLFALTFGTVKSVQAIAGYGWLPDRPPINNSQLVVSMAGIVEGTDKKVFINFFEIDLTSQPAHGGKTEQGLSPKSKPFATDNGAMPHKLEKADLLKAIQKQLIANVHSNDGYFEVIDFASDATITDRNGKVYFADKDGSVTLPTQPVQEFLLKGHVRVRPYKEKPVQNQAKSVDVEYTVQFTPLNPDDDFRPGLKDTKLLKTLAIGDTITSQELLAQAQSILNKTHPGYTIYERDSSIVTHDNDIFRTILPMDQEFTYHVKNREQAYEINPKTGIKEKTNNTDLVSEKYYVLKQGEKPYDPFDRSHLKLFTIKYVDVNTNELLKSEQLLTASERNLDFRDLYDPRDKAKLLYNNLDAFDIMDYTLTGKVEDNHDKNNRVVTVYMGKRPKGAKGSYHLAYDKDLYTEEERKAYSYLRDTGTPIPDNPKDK

[8] = molecular target: Voltage-dependent T-type calcium channel subunit alpha-1H (Homo sapiens, UniProt O95180); assay type: functional;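 further: channel activity triggered by adding a high calcium stimulation buffer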
Voltage-dependent T-type calcium channel subunit alpha-1H, sequence (O95180 whole entry): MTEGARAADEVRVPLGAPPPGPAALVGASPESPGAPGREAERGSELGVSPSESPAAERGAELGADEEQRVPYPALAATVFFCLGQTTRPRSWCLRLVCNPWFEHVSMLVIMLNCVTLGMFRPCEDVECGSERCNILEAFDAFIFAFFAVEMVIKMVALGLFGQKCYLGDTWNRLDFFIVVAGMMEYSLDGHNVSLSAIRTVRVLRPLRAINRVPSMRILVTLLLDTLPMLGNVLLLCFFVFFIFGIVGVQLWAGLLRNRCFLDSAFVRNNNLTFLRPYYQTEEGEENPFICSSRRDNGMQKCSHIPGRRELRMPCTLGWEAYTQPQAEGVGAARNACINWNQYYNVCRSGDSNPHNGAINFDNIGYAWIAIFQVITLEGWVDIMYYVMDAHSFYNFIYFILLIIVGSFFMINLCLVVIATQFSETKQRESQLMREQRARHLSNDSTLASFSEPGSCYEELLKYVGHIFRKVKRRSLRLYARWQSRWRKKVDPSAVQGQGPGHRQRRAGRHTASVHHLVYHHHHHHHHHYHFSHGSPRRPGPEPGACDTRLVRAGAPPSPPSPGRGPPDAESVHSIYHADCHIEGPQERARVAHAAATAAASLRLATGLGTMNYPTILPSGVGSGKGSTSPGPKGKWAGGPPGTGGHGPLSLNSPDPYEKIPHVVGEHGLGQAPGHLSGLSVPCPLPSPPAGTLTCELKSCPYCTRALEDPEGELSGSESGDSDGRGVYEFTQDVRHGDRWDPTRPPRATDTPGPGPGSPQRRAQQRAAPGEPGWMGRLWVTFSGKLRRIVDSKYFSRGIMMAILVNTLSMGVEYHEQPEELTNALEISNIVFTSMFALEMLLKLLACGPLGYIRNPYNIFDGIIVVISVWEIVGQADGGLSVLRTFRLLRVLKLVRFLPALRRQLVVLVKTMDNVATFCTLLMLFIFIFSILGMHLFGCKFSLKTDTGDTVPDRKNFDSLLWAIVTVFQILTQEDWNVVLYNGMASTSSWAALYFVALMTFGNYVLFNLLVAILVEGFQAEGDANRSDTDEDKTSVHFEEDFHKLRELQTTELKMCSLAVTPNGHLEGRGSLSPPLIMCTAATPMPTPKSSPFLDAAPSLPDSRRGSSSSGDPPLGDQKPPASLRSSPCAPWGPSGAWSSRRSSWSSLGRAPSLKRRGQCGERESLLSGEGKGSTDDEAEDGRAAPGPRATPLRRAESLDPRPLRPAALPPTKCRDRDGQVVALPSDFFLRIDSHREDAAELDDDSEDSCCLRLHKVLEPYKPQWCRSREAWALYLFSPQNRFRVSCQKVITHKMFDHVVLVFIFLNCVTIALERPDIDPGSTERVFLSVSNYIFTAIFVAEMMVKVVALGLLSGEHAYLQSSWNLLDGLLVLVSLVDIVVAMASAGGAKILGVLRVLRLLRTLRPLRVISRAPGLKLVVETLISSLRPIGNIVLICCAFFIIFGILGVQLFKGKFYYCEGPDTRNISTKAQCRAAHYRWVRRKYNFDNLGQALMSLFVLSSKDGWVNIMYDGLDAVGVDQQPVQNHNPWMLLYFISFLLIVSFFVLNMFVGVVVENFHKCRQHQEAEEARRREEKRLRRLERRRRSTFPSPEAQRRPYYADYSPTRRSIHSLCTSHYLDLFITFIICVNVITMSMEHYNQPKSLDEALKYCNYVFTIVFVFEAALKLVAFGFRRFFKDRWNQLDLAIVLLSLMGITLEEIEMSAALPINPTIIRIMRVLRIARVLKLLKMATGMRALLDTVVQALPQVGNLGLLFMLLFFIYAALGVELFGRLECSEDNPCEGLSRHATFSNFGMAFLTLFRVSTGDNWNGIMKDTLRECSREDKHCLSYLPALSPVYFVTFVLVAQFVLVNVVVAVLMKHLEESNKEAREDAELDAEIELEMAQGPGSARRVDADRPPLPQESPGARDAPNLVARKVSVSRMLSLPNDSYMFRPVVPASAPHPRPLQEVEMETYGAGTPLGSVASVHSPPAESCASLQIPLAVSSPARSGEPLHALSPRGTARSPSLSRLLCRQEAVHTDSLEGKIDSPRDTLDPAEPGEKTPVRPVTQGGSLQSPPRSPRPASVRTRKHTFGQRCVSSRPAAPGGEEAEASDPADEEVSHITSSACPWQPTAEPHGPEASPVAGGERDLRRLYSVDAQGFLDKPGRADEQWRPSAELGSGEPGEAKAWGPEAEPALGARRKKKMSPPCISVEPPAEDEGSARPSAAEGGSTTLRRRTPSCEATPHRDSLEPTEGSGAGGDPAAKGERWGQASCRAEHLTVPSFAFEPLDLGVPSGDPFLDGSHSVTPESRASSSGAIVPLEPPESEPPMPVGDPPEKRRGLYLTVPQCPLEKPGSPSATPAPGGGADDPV

[9] = cytotoxicity in HEK-293T cells, dose response, cytotoxicity control for BCR NF-kB inhibitor project, luminescence, B-cell screen hits (AID 489021); assay type: functional, cell-based;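 further: HEK-293T cells carrying an NF-kB luciferase reporter; cells exposed to compound for about 14 hours before viability readout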
[10] = molecular target: Peroxisome proliferator-activated receptor gamma/Nuclear receptor coactivator 3 (Homo sapiens, UniProt P37231); assay: (§1) TR-FRET dose response biochemical High Throughput Screening assay for agonists of the steroid receptor coactivator 3 (SRC-3) recruitment by the peroxisome proliferator-activated receptor gamma (PPAR gamma): non-selective agonists. [Related pubchem assays: 1301 (Confirmation screen.), 1048 (Primary screen.)]; assay type: functional
[11] = molecular target: Peroxisome proliferator-activated receptor gamma/Nuclear receptor coactivator 1 (Homo sapiens, UniProt P37231); assay: as §1, with “1 (SRC-1)” for “3 (SRC-3)”, “assays (depositor defined):AID1300, AID1808, AID504735, AID631]” for “assays: 1301 (Confirmation screen.), 1048 (Primary screen.)]”; assay type: protein assay
[12] = molecular target: Peroxisome proliferator-activated receptor gamma/Nuclear receptor coactivator 2 (Homo sapiens, UniProt P37231); assay: TR-FRET dose response biochemical High Throughput Screening assay for agonists of the steroid receptor coactivator 2 (SRC-2) recruitment by the peroxisome proliferator-activated receptor gamma (PPAR gamma): non-selective agonists. [Related pubchem assays: 1297, 1032 ]; assay type: functional
[13] = molecular target: Alkaline phosphatase, placental type (Homo sapiens, UniProt P05187); assay: PLAP enzyme inhibitors, confirmation, biochemical, luminescence (AID 1512); assay type: functional
Alkaline phosphatase, placental type, sequence (P05187 whole entry): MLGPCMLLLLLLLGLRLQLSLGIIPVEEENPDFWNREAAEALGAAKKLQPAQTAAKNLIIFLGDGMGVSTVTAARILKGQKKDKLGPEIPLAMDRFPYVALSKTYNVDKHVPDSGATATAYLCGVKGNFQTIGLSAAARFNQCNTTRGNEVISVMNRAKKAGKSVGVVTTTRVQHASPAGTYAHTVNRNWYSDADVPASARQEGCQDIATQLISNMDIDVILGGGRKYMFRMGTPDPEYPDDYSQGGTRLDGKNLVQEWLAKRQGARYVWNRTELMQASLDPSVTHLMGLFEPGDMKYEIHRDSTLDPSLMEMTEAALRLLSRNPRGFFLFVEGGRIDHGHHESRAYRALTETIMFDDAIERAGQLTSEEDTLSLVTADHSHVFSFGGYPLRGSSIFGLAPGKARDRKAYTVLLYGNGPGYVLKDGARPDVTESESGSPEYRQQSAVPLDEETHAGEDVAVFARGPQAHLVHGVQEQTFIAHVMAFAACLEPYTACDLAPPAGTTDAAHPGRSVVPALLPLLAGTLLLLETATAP

[14] = molecular target: Protein-tyrosine kinase 2-beta (Homo sapiens, UniProt Q14289);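 further: potency of inhibitors of PYK2 kinase phosphorylation of poly-GT substrate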
Protein-tyrosine kinase 2-beta, sequence (Q14289 whole entry): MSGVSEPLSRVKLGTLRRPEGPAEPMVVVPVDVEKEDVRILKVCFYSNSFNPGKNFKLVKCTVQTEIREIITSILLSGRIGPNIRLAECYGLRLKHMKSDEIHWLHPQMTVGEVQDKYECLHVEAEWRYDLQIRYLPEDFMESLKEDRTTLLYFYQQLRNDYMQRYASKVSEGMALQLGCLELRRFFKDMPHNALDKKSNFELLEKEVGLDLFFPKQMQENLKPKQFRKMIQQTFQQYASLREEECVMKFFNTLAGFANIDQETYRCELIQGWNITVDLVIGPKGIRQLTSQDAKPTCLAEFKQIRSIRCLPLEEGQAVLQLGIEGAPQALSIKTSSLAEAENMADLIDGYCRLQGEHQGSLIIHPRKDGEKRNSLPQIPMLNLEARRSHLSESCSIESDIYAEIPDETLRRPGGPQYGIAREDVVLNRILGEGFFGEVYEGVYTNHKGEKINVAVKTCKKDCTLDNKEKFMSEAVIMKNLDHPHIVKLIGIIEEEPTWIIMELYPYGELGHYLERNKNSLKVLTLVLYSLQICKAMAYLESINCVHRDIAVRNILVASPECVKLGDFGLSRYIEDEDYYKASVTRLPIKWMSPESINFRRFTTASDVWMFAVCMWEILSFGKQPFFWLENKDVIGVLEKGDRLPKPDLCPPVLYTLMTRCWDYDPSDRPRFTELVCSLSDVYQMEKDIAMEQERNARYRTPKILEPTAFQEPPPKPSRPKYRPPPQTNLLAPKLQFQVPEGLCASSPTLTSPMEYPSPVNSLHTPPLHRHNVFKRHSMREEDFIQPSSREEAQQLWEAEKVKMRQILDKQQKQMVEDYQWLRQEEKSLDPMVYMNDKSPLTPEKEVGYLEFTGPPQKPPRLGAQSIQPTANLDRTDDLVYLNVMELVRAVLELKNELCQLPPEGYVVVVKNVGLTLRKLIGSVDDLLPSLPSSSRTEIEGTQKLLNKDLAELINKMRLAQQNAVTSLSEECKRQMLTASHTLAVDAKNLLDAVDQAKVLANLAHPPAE

HEK293 [15] = assay: NOD1 signaling inhibitors, primary screen, cell-based, luminescence, uHTS (AID 1578); assay type: functional; details: Homo sapiens
HEK293 [16] = assay: cells; assay type: functional, cell-based; details: Homo sapiens
HEK293 [17] = assay: cells; assay type: functional, cell-based; details: Homo sapiens; remark: listed apart in the source
[18] = molecular target: Nucleotide-binding oligomerization domain-containing protein 2 (Homo sapiens, UniProt Q9HC29); assay: NOD2 signaling inhibitors, cell-based, luminescence, uHTS, HEK293 (AID 1566); assay type: functional
Nucleotide-binding oligomerization domain-containing protein 2, sequence (Q9HC29 whole entry, the tested form may be a part): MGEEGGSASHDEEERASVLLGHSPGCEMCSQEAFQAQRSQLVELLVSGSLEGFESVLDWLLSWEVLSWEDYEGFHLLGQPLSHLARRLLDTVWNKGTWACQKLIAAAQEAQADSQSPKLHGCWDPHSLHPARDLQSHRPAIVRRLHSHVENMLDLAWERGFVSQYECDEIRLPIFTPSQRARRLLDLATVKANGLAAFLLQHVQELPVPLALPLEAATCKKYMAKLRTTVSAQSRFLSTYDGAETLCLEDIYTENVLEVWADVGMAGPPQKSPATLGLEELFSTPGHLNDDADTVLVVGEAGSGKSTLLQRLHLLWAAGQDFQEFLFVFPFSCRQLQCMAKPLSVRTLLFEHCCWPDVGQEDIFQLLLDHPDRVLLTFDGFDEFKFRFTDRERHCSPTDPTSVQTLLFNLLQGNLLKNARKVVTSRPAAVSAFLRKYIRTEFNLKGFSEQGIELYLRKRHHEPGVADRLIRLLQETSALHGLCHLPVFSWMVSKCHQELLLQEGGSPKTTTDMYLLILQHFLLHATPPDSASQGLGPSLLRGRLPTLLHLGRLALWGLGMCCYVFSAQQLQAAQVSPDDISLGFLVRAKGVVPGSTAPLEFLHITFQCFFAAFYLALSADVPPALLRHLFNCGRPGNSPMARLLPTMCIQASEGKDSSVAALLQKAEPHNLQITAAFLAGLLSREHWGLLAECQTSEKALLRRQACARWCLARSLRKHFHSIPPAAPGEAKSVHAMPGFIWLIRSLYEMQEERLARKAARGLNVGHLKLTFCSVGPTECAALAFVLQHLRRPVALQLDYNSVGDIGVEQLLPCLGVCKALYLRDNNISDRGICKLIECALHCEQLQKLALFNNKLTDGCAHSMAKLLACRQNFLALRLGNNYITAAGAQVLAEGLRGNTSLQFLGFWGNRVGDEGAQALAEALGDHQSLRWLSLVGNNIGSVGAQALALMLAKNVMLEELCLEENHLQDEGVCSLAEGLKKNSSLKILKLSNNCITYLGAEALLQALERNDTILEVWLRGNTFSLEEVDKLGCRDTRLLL

HEK293 [19] = assay: cells; assay type: functional, cell-based; details: Homo sapiens; remark: listed apart in the source
HEK293 [20] = assay: NOD2 signaling inhibitors in MDP-stimulated cells, cell-based, uHTS, luminescence (AID 2001); assay type: functional; details: Homo sapiens
[21] = cytotoxicity in HEK-293T cells, dose response, cytotoxicity control for TCR NF-kB inhibitor project, luminescence, T-cell screen hits (AID 489026); assay type: functional, cell-based;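 further: cells exposed to compound about 14 hours before the viability readout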

## CC1SC(NC(=O)c2ccncc2)=NC1=O (configuration not stated)
Cells [1]
  EC50: > 350 µM (not active)
Cells [2]
  EC50: > 350 µM (not active)

## O=C(O)c1ccccc1C(=O)NCC(O)c1ccccc1 (configuration not stated)
[3]
  EC50: 5.05 µM (active)
Cells [4]
  EC50: > 29.9 µM (inactive)
[5]
  IC50: > 29.9 µM (inactive)
Cells [6]
  IC50: > 29.9 µM (inactive)

## O=C(CCCSc1ccccc1)Nc1nc(-c2ccccn2)cs1
[7]
  EC50: 5.14 µM (active)
Streptococcus
  EC50: 45.8 µM (active)
H9c2
  IC50: > 79 µM (inactive)
Streptokinase A
  EC50: > 150 µM (not active)
[8]
  EC50: 4.7 µM (active)

## CCn1c(=O)cc(SCC(=O)N2CCC(C)CC2)c2ccccc21
[9]
  IC50: > 80 µM (inactive)
[10]
  EC50: > 79.4 µM (not active)
[11]
  EC50: > 79.4 µM (inactive)
[12]
  EC50: > 79.4 µM (not active)

## CCc1ccc2nc(Nc3nc(COC)cc(=O)[nH]3)nc(C)c2c1
[13]
  IC50: > 100 µM (inactive)

## CCc1ccc2nc(Nc3nc(O)cc(COC)n3)nc(C)c2c1
[9]
  IC50: > 80 µM (inactive)

## CN1C(=O)c2cccc3c(S(=O)(=O)NCc4ccco4)ccc1c23
[14]
  IC50: > 69.5 µM (not active)

## Cc1csc2ncnc(NC3CCN(Cc4ccccc4)CC3)c12
HEK293 [15]
  EC50: 1.92 µM (active)
HEK293 [16]
  IC50: 1.61 µM (active)
HEK293 [17]
  IC50: > 20 µM (inactive)
[18]
  EC50: 7.78 µM (active)
HEK293 [19]
  IC50: > 20 µM (inactive)
HEK293 [20]
  IC50: 2.36 µM (active)
[21]
  IC50: > 80 µM (inactive)

## CC(C)C(=O)Nc1ccc(NC(=O)c2ccc3c(c2)OCO3)cc1
[9]
  IC50: > 80 µM (inactive)

## Cc1cccc(C)c1NC(=O)C(c1ccc(Cl)cc1Cl)N1CCCCC1 (configuration not stated)
[8]
  EC50: 2.39 µM (active)

## COc1ccc(O)c(-c2[nH]ncc2C(=O)c2ccccc2)c1
HEK293 [15]
  EC50: 15 µM (active)
HEK293 [16]
  IC50: 9.31 µM (active)
HEK293 [17]
  IC50: > 20 µM (inactive)
[18]
  EC50: 14.3 µM (active)
HEK293 [19]
  IC50: > 20 µM (inactive)
HEK293 [20]
  IC50: 14 µM (inactive)

## O=C(Nc1ccc(F)cc1)Nc1ccc(Oc2ncnc3cc(Cl)ccc23)nc1
[3]
  EC50: > 29.9 µM (inactive)
Cells [4]
  EC50: > 29.9 µM (inactive)
[5]
  IC50: 0.373 µM (active)
Cells [6]
  IC50: > 29.9 µM (inactive)
